Measured values as given in US20090075941A1, “TREATING NEOPLASMS” (THE UAB RESEARCH FOUNDATION, priority 2006, published 2009).

Tests used:
AB12 cells [1] = test: In vitro growth assay, BrdU incorporation; assay type: cell-based, mouse; details: with p38 inhibitor SB202190 10^−5 M vs inactive control compound, 5 days
Description: (§1) In vitro growth assay. […] Briefly, […] were plated onto 96-well plates in 100 μl of normal culture medium. The cells were then treated with the indicated agents for various times. BrdU was added to the wells for the final 24 h and incorporated BrdU was detected with sequential additions of monoclonal mouse anti-BrdU antibody and HRP-conjugated anti-mouse antibody. After addition of the substrate for HRP, intensity of the colored reaction product, which is proportional to the amount of BrdU incorporated into the cells, was read with spectrophotometer at […].

AC29 cells = test: In vitro growth assay, BrdU incorporation; assay type: cell-based, mouse; details: with p38 inhibitor SB202190 10^−5 M vs inactive control compound, 5 days
Description: as §1

AB12 cells [2] = test: Subcutaneous mouse mesothelioma model, tumor volume; assay type: in vivo; details: AB12 s.c. in BALB/c mice; risedronate 15 mg/kg (P<0.02), zoledronate 0.5 mg/kg (P<0.003); every six days, 4 treatments from day 10
Description: In vivo mesothelioma models. Female BALB/c mice, four to eight weeks of age, were obtained from the National Cancer Institute-Frederick Cancer Research Facility (Frederick, Md.) and were housed in the Pathogen-Free Rodent Shared Facility (Comprehensive Cancer Center, University of Alabama at Birmingham). All animal procedures were performed, in accordance with recommendations for the proper care and use of laboratory animals and were approved by the local IACUC. Subcutaneous (s.c.) and intraperitoneal (i.p.) mouse mesothelioma models were evaluated. In the s.c. model, 3×10^6 AB12 cells were first injected s.c. into cohorts of BALB/c mice. Treatments with i.p. BPs or vehicle were started when tumors became palpable on day 10 and continued every six days for a total of 4 treatments. Tumor size was measured bidimensionally with calipers every two to three days and tumor volume calculated by the formula (length×width^2)÷2. Mice were euthanized before tumors reached the size of 2000 mm^3. In the i.p. model, AC29 or AB12 cells (5×10^5/0.5 ml) were injected i.p, into cohorts of 10-12 BALB/c using a 26-gauge needle. Treatment was initiated 6 days after tumor inoculation and the mice were followed for survival. In the i.p. model risedronate (15 mg/kg), zoledronate (0.5 mg/kg) or PBS were administered i.p. three times a week for two weeks.

AB-12 cells = test: Cell viability, MTS-assay; assay type: cell-based, mouse
Description: (§2) Cell viability assays. Cells were plated on 96-well plates at the density of 1×10^3 cells in 100 μl per well in normal culture medium, with or without of the indicated concentrations of the various bisphosphonate combinations and or 1 mM CaCl2, 1 mM EGTA or vehicle and cultured for 48 h. Cell viability was assessed with 3-(4,5-dimethylthiazol-2-yl)-5-(3-carboxy tetrazolium, inner salt (MTS)-assays (CellTiter Aqueous One 96 from Promega; Madison, Wis.) according to the manufacturer's instructions. For each treatment, a PBS-control group was run simultaneously on the same plate. The results for each treatment were calculated as % of the corresponding PBS-group.

J774 cells = test: Cell viability, MTS-assay; assay type: cell-based
Description: as §2

[3] = N-BP 10^−4 M + clodronate 10^−3 M
[4] = N-BP 10^−4 M + etidronate 10^−3 M

In the case of `O=P(O)(O)C(O)(Cc1cccnc1)P(=O)(O)O` [risedronate], the “BP-induced growth inhibition on inhibition of p38” value (AB12 cells [1]) is reported as “augmented”, the “BP-induced growth inhibition on inhibition of p38” value (AC29 cells) is reported as “augmented” and the subcutaneous tumor growth (AB12 cells [2]) is reported as “inhibited subcutaneous tumor growth”. For the same compound, the “effect of added Ca2+ on the bisphosphonate's growth inhibitory effect” value (AB-12 cells; 1 mM CaCl2, N-BP 10^−4 M or p-BP 10^−3 M) was “enhanced”, the “effect of added EGTA on the bisphosphonate's growth inhibitory effect” value (AB-12 cells; 1 mM EGTA, N-BP 10^−4 M) was “enhanced” and the “effect of excess clodronate on the viability change induced by the nitrogen-containing bisphosphonate” value (AB-12 cells; [3]) was “decreased slightly, but significantly cell viability”. The “effect of excess etidronate on the viability change induced by the nitrogen-containing bisphosphonate” value (AB-12 cells; [4]) was “decreased cell viability”, the “effect of added EGTA on the bisphosphonate's growth inhibitory effect” value (J774 cells; 1 mM EGTA, N-BP 10^−4 M or clodronate 10^−3 M) was “reversed” and the cell viability (J774 cells; 10^−4 M) was “significantly decreased cellular viability”. For the same compound, the “effect of excess clodronate on the viability change induced by the nitrogen-containing bisphosphonate” value (J774 cells; [3]) was “significantly reversed” and the “effect of excess etidronate on the viability change induced by the nitrogen-containing bisphosphonate” value (J774 cells; [4]) was “reversed”.
